The nature of data set [1]: log P by HPLC on a reversed-phase column (C18), EEC Directive 79/831 Annex V.A8. In kind it is physicochemical. The settings on record: 55° C. As for the experimental part: The log P values are measured according to EEC Directive 79/831 Annex V.A8 by HPLC (high-performance liquid chromatography) on a reversed-phase column (C18). Temperature: 55° C. The LC-MS determination in the acidic range is carried out at pH 2.7 using the mobile phases 0.1% aqueous formic acid and acetonitrile (contains 0.1% formic acid); linear gradient from 10% acetonitrile to 95% acetonitrile. Called log P (HCOOH) or log P[a] in the table. The LC-MS determination in the neutral range is carried out at pH 7.8 using the mobile phases 0.001 molar aqueous ammonium bicarbonate solution and acetonitrile; linear gradient from 10% acetonitrile to 95% acetonitrile. Called log P (neutral) or log P[n] in the table. Calibration is carried out using unbranched alkan-2-ones (having 3 to 16 carbon atoms) with known log P values (log P values determined on the basis of the retention times by linear interpolation between two successive alkanones).

Data set [2] relates to Myzus persicae. The data set can be described thus: Myzus persicae - spray test. Format: in vivo. Particulars: application rate 20 g/ha, after 5 days, sprayed Chinese cabbage leaf discs, all stages of green peach aphid. As for the experimental part:
Myzus persicae—Spray Test Solvent: 78 parts by weight of acetone • • 1.5 parts by weight of dimethylformamide Emulsifier: alkylaryl polyglycol ether To produce a suitable active compound preparation, 1 part by weight of active compound is dissolved with the specified parts by weight of solvent and made up with water containing an emulsifier concentration of 1000 ppm until the desired concentration is attained. To produce further test concentrations, the formulation is diluted with emulsifier-containing water. Discs of Chinese cabbage leaves (Brassica pekinensis) infested by all stages of the green peach aphid (Myzus persicae) are sprayed with an active compound formulation of the desired concentration. After 5 days, the efficacy in % is determined. 100% means that all the aphids have been killed; 0% means that no aphids have been killed.

Data set [3] has as its system Myzus persicae. The data set can be described thus: Myzus persicae - oral test. Format: in vivo. Particulars: application rate 4 ppm, after 5 days, green peach aphids, mixed population, oral uptake. Here is the method:
Myzus persicae—Oral Test Solvent: 100 parts by weight of acetone To produce a suitable preparation of active compound, 1 part by weight of active compound is dissolved using the specified parts by weight of solvent and made up with water until the desired concentration is attained. 50 μl of the active compound preparation are transferred into microtitre plates and made up to a final volume of 200 μl with 150 μl of IPL41 insect medium (33%+15% sugar). Subsequently, the plates are sealed with parafilm, which a mixed population of green peach aphids (Myzus persicae) within a second microtitre plate is able to puncture and imbibe the solution through it. After 5 days, the efficacy in % is determined. 100% means that all the aphids have been killed; 0% means that no aphids have been killed.

The next data set deals with Phaedon cochleariae. The data set can be described thus: Phaedon cochleariae - spray test. In kind it is in vivo. Particulars: application rate 100 g/ha, after 7 days, sprayed Chinese cabbage leaf discs, mustard beetle larvae. As for the experimental part:
Phaedon cochleariae—Spray Test
Solvent: 78.0 parts by weight of acetone • • 1.5 parts by weight of dimethylformamide
Emulsifier: alkylaryl polyglycol ether
To produce a suitable active compound preparation, 1 part by weight of active compound is dissolved with the specified parts by weight of solvent and made up with water containing an emulsifier concentration of 1000 ppm until the desired concentration is attained. To produce further test concentrations, the formulation is diluted with emulsifier-containing water.
Discs of Chinese cabbage leaves (Brassica pekinensis) are sprayed with an active compound formulation of the desired concentration and, after drying, populated with larvae of the mustard beetle (Phaedon cochleariae).
After 7 days, the efficacy in % is determined. 100% means that all the beetle larvae have been killed; 0% means that no beetle larvae have been killed.

The mark [4] stands for this setting: acidic range, pH 2.7, 0.1% aqueous formic acid/acetonitrile gradient, read-out: log P[a] (log P (HCOOH)).
Where [5] appears, read: neutral range, pH 7.8, 0.001 molar aqueous ammonium bicarbonate/acetonitrile gradient, read-out: log P[n] (log P (neutral)).

Read-outs that look alike come from different tables or passages of the source.

As for `CCSc1c(-c2nc3cc(C(F)(F)F)ncc3n2C)ncc2ccsc12` [Example I-6], the chromatographic logP in data set [1] (setting [4]) was found to be 2.95; in data set [1] (setting [5]), 2.85.

Regarding `CCS(=O)(=O)c1c(-c2nc3cc(C(F)(F)F)ncc3n2C)ncc2ccsc12` [Example I-5], in the data set on Myzus persicae [2], the “efficacy in % (aphids killed)” value is on record as 90%. Moreover, the chromatographic logP in data set [1] (setting [4]) was 2.53; in data set [1] (setting [5]), 2.4.

`CCSc1c(-c2nc3cc(C(F)(F)F)cnc3n2C)ncc2ncsc12` [Example I-3, 7-(Ethylsulfanyl)-6-[3-methyl-6-(trifluoromethyl)-3H-imidazo[4,5-b]pyridin-2-yl][1,3]thiazolo[4,5-c]pyridine]: the chromatographic logP came to 2.96 in data set [1] (setting [4]) and 2.94 in data set [1] (setting [5]).

Turning to `CCOC(=O)c1ncc2ncsc2c1SCC` [XL-1, Ethyl 7-(ethylsulfanyl)[1,3]thiazolo[4,5-c]pyridine-6-carboxylate], the chromatographic logP was determined as 2.23 in data set [1] (setting [4]) and 2.17 in data set [1] (setting [5]).

`CCS(=O)(=O)c1c(-c2nc3cc(C(F)(F)F)cnc3n2C)ncc2ccsc12` [Example I-4]: the “efficacy in % (aphids killed)” value was determined as 90% in the data set with Myzus persicae [2] and 100% with Myzus persicae [3]. For the same molecule, the chromatographic logP came out at 2.88 in data set [1] (setting [4]) and 2.82 in data set [1] (setting [5]). Besides, in the data set on Phaedon cochleariae, the “efficacy in % (beetle larvae killed)” value amounted to 100%.

As for `CCS(=O)(=O)c1c(-c2nc3cc(C(F)(F)F)cnc3n2C)ncc2ncsc12` [Example I-1, 7-(Ethylsulfonyl)-6-[3-methyl-6-(trifluoromethyl)-3H-imidazo[4,5-b]pyridin-2-yl][1,3]thiazolo[4,5-c]pyridine], the “efficacy in % (aphids killed)” value in the data set on Myzus persicae [2] worked out at 90%; with Myzus persicae [3], 100%. Further, the figures for the chromatographic logP in data set [1] (setting [4]) and in data set [1] (setting [5]) were 2.6 and 2.53, respectively. Also, the “efficacy in % (beetle larvae killed)” value with Phaedon cochleariae was found to be 83%.

On to `CCS(=O)(=O)c1c(-c2nc3cc(C(F)(F)F)cnc3n2C)ncc2sccc12` [Example I-7], for which the “efficacy in % (aphids killed)” value in the data set on Myzus persicae [2] and with Myzus persicae [3] was 100% in each case. The figures for the chromatographic logP in data set [1] (setting [4]) and in data set [1] (setting [5]) were 2.56 and 2.72, respectively.

Regarding `CCS(=O)(=O)c1c(-c2nc3cc(C(F)(F)F)ncc3n2C)ncc2sccc12` [Example I-8], the “efficacy in % (aphids killed)” value in the data set with Myzus persicae [2] and with Myzus persicae [3] was 100% each time. Also, the chromatographic logP was found to be 2.3 in data set [1] (setting [4]) and 2.28 in data set [1] (setting [5]).

`CCSc1c(C(=O)O)ncc2ncsc12` [XLI-1, 7-(Ethylsulfanyl)[1,3]thiazolo[4,5-c]pyridine-6-carboxylic acid]: the chromatographic logP in data set [1] (setting [4]) stood at 0.88.

For `CC[S+]([O-])c1c(-c2nc3cc(C(F)(F)F)cnc3n2C)ncc2ncsc12` (centres unmarked) [Example I-2, 7-(Ethylsulfinyl)-6-[3-methyl-6-(trifluoromethyl)-3H-imidazo[4,5-b]pyridin-2-yl][1,3]thiazolo[4,5-c]pyridine], the chromatographic logP in data set [1] (setting [4]) was 3.09; in data set [1] (setting [5]), 2.98.

On to `CCOC(=O)c1ncc2ncsc2c1OS(=O)(=O)C(F)(F)F` [XXXIV-1, Ethyl 7-{[(trifluoromethyl)sulfonyl]oxy}[1,3]thiazolo[4,5-c]pyridine-6-carboxylate], for which the chromatographic logP is 2.58 in data set [1] (setting [4]) and 2.57 in data set [1] (setting [5]).

Values taken from patent US10561145B2, “Fused bicyclic heterocycle derivatives as pesticides” (Bayer CropScience Aktiengesellschaft, priority 2016, dated 2020).
